Data: US5001118A, “Method for preventing senescence and increasing bone mass” (priority 1986, dated 1991)

Assays:
ICR type mice [1] = assay: Biochemical inspection of blood serum, daily oral administration; assay type: in vivo, mouse (ICR type); parameters: key: .dwnarw.: Decrease below control; →: No difference from control; .uparw.: Increase above control
Source text: The results are compared below with respect to the following items with those obtained of the male- and female-groups using only the solvent without the present substance.

ICR type mice [2] = assay: Inspection of urine, daily oral administration; assay type: in vivo, mouse (ICR type); parameters: key: .dwnarw.: Decrease below control; →: No difference from control; .uparw.: Increase above control
Description: (§1) Solutions obtained by dissolving the present substance, 24R,25-(OH)2 -D3 in a prescribed concentration in triglyceride of a fatty acid of 8 to 10 carbon atoms containing 1% of ethanol were administered respectively, orally, forcedly and daily to three male-groups and three female-groups of ICR type mice 5 weeks old at dosages of 10, 100, and 1,000 μg/kg.day. The results are compared below with respect to the following items with those obtained of the male- and female-groups using only the solvent without the present substance.

[3] = Growth curves (body weight), daily oral administration; assay type: in vivo, mouse (ICR type); details: male and female ICR mice, 10, 100, and 1,000 μg/kg.day orally
Description: as §1

[4] = test system: femurs of male Wister rats; assay: Fracture test of femurs; assay type: in vivo, rat (Wister); details: rat femur, 40 μg/kg orally, 24 months; 20 kg-load cell; control 11.6 ± 2.2
Description: Male Wister rats 4 weeks old were preliminarily kept for 2 weeks. For the subsequent 24 months, the present substance, 24R,25-(OH)2 -D3, was orally administered to the pre-bred rats daily at a dosage of 40 μg/kg.day. Then, the aged rats were sacrificed and their femurs were collected and fractured with an instrument (produced by Iio Denki Co., Ltd. and marketed under trade name of "Rheodynacorder RDR-1500(D)") using a 20 kg-load cell, at a distance of 6.5 mm from the trochanter minor under the condition of a fulcrum interval of 13 mm to determine the power required for the fracture.
As regards the manner of administration, a modified feed was prepared by uniformly dispersing a prescribed amount of the present substance, 24R,25-(OH)2 -D3, in glycine and admixing the resultant dispersing mixture with a marketed feed (produced by Nippon Clea Co., Ltd. under product code of "CE-2") in such a manner as to give a final glycine concentration of 0.5% by weight and the modified feed was consumed by the rats. The administration dosage was calculated on the basis of the actual amount of the feed consumed by the rats.

C=C1CC[C@H](O)C/C1=C/C=C1\CCC[C@]2(C)[C@@H]([C@H](C)CC[C@@H](O)C(C)(C)O)CC[C@@H]12 [24R,25-(OH)2 -D3]
.dwnarw.: BUN (ICR type mice [1]; male, 1000 μg/kg) | Glu (ICR type mice [1]; male, 1000 μg/kg) | LDH (ICR type mice [1]; male, 1000 μg/kg) | T-Bil (ICR type mice [1]; male, 1000 μg/kg)
Out of scale, so large: Power for fracture [4]
→: A/G (ICR type mice [1]; female, 10 μg/kg) | ALP (ICR type mice [1]; female, 10 μg/kg) | Alb (ICR type mice [1]; female, 10 μg/kg) | BUN (ICR type mice [1]; female, 10 μg/kg) | Ca (ICR type mice [1]; female, 10 μg/kg) | GOT (ICR type mice [1]; female, 10 μg/kg) | GPT (ICR type mice [1]; female, 10 μg/kg) | Glu (ICR type mice [1]; female, 10 μg/kg) | I-P (ICR type mice [1]; female, 10 μg/kg) | LDH (ICR type mice [1]; female, 10 μg/kg) | T-Bil (ICR type mice [1]; female, 10 μg/kg) | T-CHO (ICR type mice [1]; female, 10 μg/kg) | T-P (ICR type mice [1]; female, 10 μg/kg) | A/G (ICR type mice [1]; female, 100 μg/kg) | ALP (ICR type mice [1]; female, 100 μg/kg) | Alb (ICR type mice [1]; female, 100 μg/kg) | BUN (ICR type mice [1]; female, 100 μg/kg) | Ca (ICR type mice [1]; female, 100 μg/kg) | GOT (ICR type mice [1]; female, 100 μg/kg) | GPT (ICR type mice [1]; female, 100 μg/kg) | Glu (ICR type mice [1]; female, 100 μg/kg) | I-P (ICR type mice [1]; female, 100 μg/kg) | LDH (ICR type mice [1]; female, 100 μg/kg) | T-Bil (ICR type mice [1]; female, 100 μg/kg) | T-CHO (ICR type mice [1]; female, 100 μg/kg) | T-P (ICR type mice [1]; female, 100 μg/kg) | A/G (ICR type mice [1]; female, 1000 μg/kg) | ALP (ICR type mice [1]; female, 1000 μg/kg) | Alb (ICR type mice [1]; female, 1000 μg/kg) | BUN (ICR type mice [1]; female, 1000 μg/kg) | Ca (ICR type mice [1]; female, 1000 μg/kg) | GOT (ICR type mice [1]; female, 1000 μg/kg) | GPT (ICR type mice [1]; female, 1000 μg/kg) | Glu (ICR type mice [1]; female, 1000 μg/kg) | I-P (ICR type mice [1]; female, 1000 μg/kg) | LDH (ICR type mice [1]; female, 1000 μg/kg) | T-Bil (ICR type mice [1]; female, 1000 μg/kg) | T-CHO (ICR type mice [1]; female, 1000 μg/kg) | T-P (ICR type mice [1]; female, 1000 μg/kg) | A/G (ICR type mice [1]; male, 10 μg/kg) | ALP (ICR type mice [1]; male, 10 μg/kg) | Alb (ICR type mice [1]; male, 10 μg/kg) | BUN (ICR type mice [1]; male, 10 μg/kg) | Ca (ICR type mice [1]; male, 10 μg/kg) | GOT (ICR type mice [1]; male, 10 μg/kg) | GPT (ICR type mice [1]; male, 10 μg/kg) | Glu (ICR type mice [1]; male, 10 μg/kg) | I-P (ICR type mice [1]; male, 10 μg/kg) | LDH (ICR type mice [1]; male, 10 μg/kg) | T-Bil (ICR type mice [1]; male, 10 μg/kg) | T-CHO (ICR type mice [1]; male, 10 μg/kg) | T-P (ICR type mice [1]; male, 10 μg/kg) | A/G (ICR type mice [1]; male, 100 μg/kg) | ALP (ICR type mice [1]; male, 100 μg/kg) | Alb (ICR type mice [1]; male, 100 μg/kg) | BUN (ICR type mice [1]; male, 100 μg/kg) | Ca (ICR type mice [1]; male, 100 μg/kg) | GOT (ICR type mice [1]; male, 100 μg/kg) | GPT (ICR type mice [1]; male, 100 μg/kg) | Glu (ICR type mice [1]; male, 100 μg/kg) | I-P (ICR type mice [1]; male, 100 μg/kg) | LDH (ICR type mice [1]; male, 100 μg/kg) | T-Bil (ICR type mice [1]; male, 100 μg/kg) | T-CHO (ICR type mice [1]; male, 100 μg/kg) | T-P (ICR type mice [1]; male, 100 μg/kg) | A/G (ICR type mice [1]; male, 1000 μg/kg) | ALP (ICR type mice [1]; male, 1000 μg/kg) | Alb (ICR type mice [1]; male, 1000 μg/kg) | Ca (ICR type mice [1]; male, 1000 μg/kg) | GOT (ICR type mice [1]; male, 1000 μg/kg) | GPT (ICR type mice [1]; male, 1000 μg/kg) | I-P (ICR type mice [1]; male, 1000 μg/kg) | T-CHO (ICR type mice [1]; male, 1000 μg/kg) | T-P (ICR type mice [1]; male, 1000 μg/kg) | Urine ketone body (ICR type mice [2]; female, 10 μg/kg) | Urine occult blood (ICR type mice [2]; female, 10 μg/kg) | Urine pH (ICR type mice [2]; female, 10 μg/kg) | Urine protein (ICR type mice [2]; female, 10 μg/kg) | Urine sugar (ICR type mice [2]; female, 10 μg/kg) | Urobilinogen (ICR type mice [2]; female, 10 μg/kg) | Urine ketone body (ICR type mice [2]; female, 100 μg/kg) | Urine occult blood (ICR type mice [2]; female, 100 μg/kg) | Urine pH (ICR type mice [2]; female, 100 μg/kg) | Urine protein (ICR type mice [2]; female, 100 μg/kg) | Urine sugar (ICR type mice [2]; female, 100 μg/kg) | Urobilinogen (ICR type mice [2]; female, 100 μg/kg) | Urine ketone body (ICR type mice [2]; female, 1000 μg/kg) | Urine occult blood (ICR type mice [2]; female, 1000 μg/kg) | Urine pH (ICR type mice [2]; female, 1000 μg/kg) | Urine protein (ICR type mice [2]; female, 1000 μg/kg) | Urine sugar (ICR type mice [2]; female, 1000 μg/kg) | Urobilinogen (ICR type mice [2]; female, 1000 μg/kg) | Urine ketone body (ICR type mice [2]; male, 10 μg/kg) | Urine occult blood (ICR type mice [2]; male, 10 μg/kg) | Urine pH (ICR type mice [2]; male, 10 μg/kg) | Urine protein (ICR type mice [2]; male, 10 μg/kg) | Urine sugar (ICR type mice [2]; male, 10 μg/kg) | Urobilinogen (ICR type mice [2]; male, 10 μg/kg) | Urine ketone body (ICR type mice [2]; male, 100 μg/kg) | Urine occult blood (ICR type mice [2]; male, 100 μg/kg) | Urine pH (ICR type mice [2]; male, 100 μg/kg) | Urine protein (ICR type mice [2]; male, 100 μg/kg) | Urine sugar (ICR type mice [2]; male, 100 μg/kg) | Urobilinogen (ICR type mice [2]; male, 100 μg/kg) | Urine ketone body (ICR type mice [2]; male, 1000 μg/kg) | Urine occult blood (ICR type mice [2]; male, 1000 μg/kg) | Urine pH (ICR type mice [2]; male, 1000 μg/kg) | Urine protein (ICR type mice [2]; male, 1000 μg/kg) | Urine sugar (ICR type mice [2]; male, 1000 μg/kg) | Urobilinogen (ICR type mice [2]; male, 1000 μg/kg)
absence of a discernible difference: change of body weight (growth curves) [3]
